Test results reported in patent US20090216158A1, “ULTRASOUND AND TISSUE REPAIR” (priority 2008, published 2009).

How the values were obtained:
Rac1 = assay: GTPase activation assay: Rac1 effector pull-down with quantitative Western blotting; assay type: cell-based, mouse; details: 200 nM BIM, 30 min before and throughout stimulation; MEFs prespread on 50K
Description: (§1) For immunofluorescence, 13-mm diameter glass coverslips, placed into 6-well plates, were derivatized for 30 minutes with 1 mM sulpho-m-maleimidobenzoyl-N-hydrosuccinimide ester (Perbio). For spreading on mab13 monoclonal antibody, coverslips were pre-coated with 10 μg/ml goat anti-Rat IgG FC fragment (Jackson, Stratech Scientific). For biochemical assays, 6-well tissue culture-treated plastic plates (Corning BV) were coated directly with ligand. Coverslips or dishes were coated for 2 hours at room temperature with 10 μg/ml 50K, H/0, PLL or mab13 in Dulbecco's PBS containing calcium and magnesium (Lonza), and blocked with 10 mg/ml heat-denatured BSA for 30 minutes at room temperature (Humphries et al., 1986). Equivalent ligand-coating between glass and plastic was tested by ELISA using the anti-fibronectin mAb 333 (Bass et al., 2007a). To prevent de novo synthesis of ECM and other syndecan-4 ligands, cells were treated with 25 μg/ml cycloheximide (Sigma) for 2 hours prior to detachment (Couchman et al., 1983) and were then detached with 0.5 mg/ml trypsin. […] Images were compiled and analyzed using ImageJ software. The total area of adhesion complexes per cell was calculated by recording the area of fluorescence intensity above an empirically determined threshold, following rolling ball background subtraction. […]

MEFs = assay: Adhesion complex (focal adhesion) formation assay, vinculin/actin immunofluorescence; assay type: cell-based, mouse; details: 200 nM BIM; MEFs prespread on 50K
Description: as §1

human β1 integrin = biological target: T1, human β1 integrin (Homo sapiens, UniProt P05556); assay: Flow cytometry of integrin activity with 12G10 antibody on K562 cells; assay type: cell-based; details: 1 mM Mn^2+ rather than 1 mM Ca^2+, 0.5 mM Mg^2+
T1 construct: endogenous in cells; host or cells: K562 human lymphocytes
Description: For analysis of integrin activity by flow cytometry, K562 suspension cells were stimulated with ultrasound for 20 minutes, followed by centrifugation and re-suspension in ice cold media. Cells were stained with primary antibody (12G10), diluted to 10 μg/ml in Dulbecco's PBS containing calcium and magnesium (Lonza), 0.02% (w/v) sodium azide on ice for 1 hour. The cells were washed with PBS, 1% (v/v) fetal bovine serum, followed by 10 μg/ml secondary antibody diluted in PBS, 10% (v/v) fetal bovine serum for 30 minutes. For manganese stimulation all antibodies and wash buffers were supplemented with 1 mM MnCl2. Cells were then fixed with 2% (w/v) paraformaldehyde, and analysed on a Dako Cyan flow cytometer, using an excitation wavelength of 488 nm. A 530/30 nm bandpass filter was used to detect the emissions.

SMILES | effect on ultrasound-induced Rac1 activation (Rac1) | effect on focal adhesion formation in response to H/0 (MEFs) | staining of K562 lymphocytes with 12G10 (β1 integrin activation epitope) (human β1 integrin)
CN(C)CCCn1cc(C2=C(c3c[nH]c4ccccc34)C(=O)NC2=O)c2ccccc21 [BIM, bisindolylmaleimide I] | did not prevent ultrasound-induced Rac1 activation | blocked focal adhesion formation in response to H/0 | –
[Cl][Mn][Cl] [Mn^2+, MnCl2] | – | – | enhanced
